According to paper PMC12295927, “Design, Synthesis, and Testing of 1,2,3-Triazolo-Quinobenzothiazine Hybrids for Cytotoxic and Immunomodulatory Activity” (International Journal of Molecular Sciences, 2025):

Tests used:
Format in all cases: cell-based, Human
BEAS-2B = test: Alamar Blue cytotoxicity test, BEAS-2B; settings: Homo sapiens, 24 h, 24 h incubation, read-out: IC50 values for BEAS-2B line
Method: The cytotoxicity of the tested chemical compounds MJ1–MJ20 was tested using the Alamar Blue test. The experiment was conducted on cell lines BEAS-2B (Figure 7), HCT116 (Figure 8), U2OS (Figure 9), MCF7 (Figure 10), SH-SY5Y (Figure 11), NHDF (Figure 12), and A549 (Figure 13). Cells were seeded in 96-well plates and incubated with the tested compounds for 24 h. The test result is the IC50 parameter, which is a measure of cytotoxic activity expressed by the concentration of the substance that causes the death of half of the analyzed cells compared to the control.
In cytotoxicity studies, the Alamar Blue test was used, which is based on the ability of living cells to reduce the non-fluorescent dye resazurin to fluorescent resorufin, which reflects the metabolic activity of cells. BEAS-2B, NHDF, HCT116, MCF7, A549, SH-SY5Y and U2OS cell lines were cultured under standard conditions, in DMEM medium supplemented with 10% FBS and 1% penicillin/streptomycin, at 37 °C, 5% CO2 and 95% humidity. Cells were seeded in 96-well plates at 1 × 10^4 cells per well and incubated for 24 h. Then, the tested compounds (MJ1–MJ20) were added at different concentrations (from 6.25 µM to 100 µM). The control contained cells untreated with the tested compounds. After 24 h of incubation, 10 µL of Alamar Blue solution was added to each well and incubated for another 2–4 h under the same conditions. The signal was measured spectrophotometrically at wavelengths of 570 nm (for resorufin) and 600 nm (for resazurin) or optionally fluorimetrically, using an excitation maximum of 570 nm and an emission maximum of 585 nm. The results were presented as percentage of cell survival relative to the control, calculating the ratio of absorbance or fluorescence of the sample to the control value. The Alamar Blue assay, due to its sensitivity and non-toxicity, allows for an accurate assessment of metabolic activity and cell survival in response to the tested quinobenzothiazines.

IL6 gene = test: RT-qPCR IL6 gene expression in BEAS-2B; settings: 24 h; for fold induction at 100 µM: Homo sapiens, reference gene RPL41, vs untreated control, read-out: Relative level of expression, IL6 gene
Method: (§1) Real-time polymerase chain reaction was performed for the reference gene RPL41 (ribosomal protein L41) and the tested genes: BCL2, AIFM2, MDM2, IL6 and IL8. […] The BEAS-2B line was selected for the experiment. The expression level of selected genes was measured after 24 h of incubation with the tested substances MJ1–MJ20 at a concentration of 100 μM (Table 3).
The RT-qPCR experiment was performed for the BEAS-2B cell line. In this experiment, the IL6 and IL8 genes were studied and RPL41 was used as a reference gene (Figure 17 and Figure 18).
(§2) Gene expression studies used quantitative RT-qPCR to assess the effect of the tested quinobenzothiazines (MJ1–MJ20) on the expression of apoptosis-related genes (BCL2, AIFM2, MDM2) and pro-inflammatory cytokines (IL6, IL8) (Table 4).
(§3) BEAS-2B and HCT116 cells were seeded in 6-well plates at 2 × 10^5 cells per well and cultured in RPMI-1640 (BEAS-2B) or DMEM (HCT116) medium supplemented with 10% FBS and 1% penicillin/streptomycin at 37 °C, 5% CO2 and 95% humidity. After 24 h of incubation, the tested compounds were added at a concentration of 100 µM. After 24 h, the medium was removed from the cells, washed with PBS solution, 0.5 mL of trypsin was added per well and after 5 min it was neutralized with medium. The obtained cell suspension was centrifuged for 3 min at 2000 rpm, the supernatant was removed, and the obtained pellet was suspended in 400 µL of phenozol. Samples were frozen at −20 °C and stored until further experiment and RNA isolation.
(§4) Total RNA was isolated from cells using the A&A Biotechnology Total RNA Mini kit according to the manufacturer’s protocol. RNA quality and quantity were assessed using a NanoDrop 2000 spectrophotometer at 260/280 nm. Reverse transcription was performed using the protocol (EURx NG dART RT Kit) to obtain cDNA. After incubation, samples were placed in a freezer (−20 °C) and stored until further analysis.
(§5) The experiment was performed according to the protocol (Brilliant III Ultra Fast SYBR® Green QPCR Master Mix, Quick Reference Guide for the Bio-Rad CFX96 Real-Time PCR Detection System). RT-qPCR reaction was performed using specific primers for target genes (BCL2, AIFM2, MDM2, IL6, IL8). Gene expression was normalized to the expression of the reference gene RPL41. Reaction profiles and results were performed using Bio-Rad CFX Maestro 1.1 software from Bio-Rad. Analysis and calculations of the results obtained during RT-qPCR were performed using Microsoft Excel.
(§6) The results were analyzed using the R = 2^−ΔΔCt method, which allows for determining the relative level of gene expression (R) compared to the control. Each experiment was performed in three technical and biological replicates. RT-qPCR allowed for precise assessment of changes in the expression of genes related to the processes of apoptosis and inflammatory response under the influence of quinobenzothiazines, which allowed for identifying their potential mechanisms of action at the molecular level.

BCL2 gene = test: RT-qPCR BCL2 gene expression in BEAS-2B; settings: 24 h; for fold induction at 100 µM: Homo sapiens, reference gene RPL41, vs untreated control, read-out: Relative level of expression, BCL2 gene
Method: as §1
The RT-qPCR experiment was performed for the BEAS-2B cell line. In this experiment, the BCL2 gene was studied, and RPL41 was used as the reference gene (Figure 14).
as §2, §3, §4, §5, §6

`Clc1ccc2c(c1)Sc1cc3ccccc3nc1N2Cc1cn(CSc2ccccc2)nn1` [MJ15, 9-Chloro-6-((1-((phenylthio)methyl)-1H-1,2,3-triazol-4-yl)methyl)-quino[3,2-b]benzo[1,4]thiazine] was tested, and the IC50 (BEAS-2B) was 87.2 µM, the fold induction at 100 µM (IL6 gene) was 13 and the fold induction at 100 µM (BCL2 gene) was 60.3.

`CSc1ccc2c(c1)Sc1cc3ccccc3nc1N2Cc1cn(Cc2ccc(C#N)cc2)nn1` [MJ19, 4-((4-((9-Methylthioquino[3,2-b]benzo[1,4]thiazin-6-yl)methyl)-1H-1,2,3-triazol-1-yl)methyl)benzonitrile] showed an IC50 (BEAS-2B) of 72.7 µM, an IL6 expression increase (IL6 gene; 100 μM, compared to control) of 57.2 fold and a fold induction at 100 µM (IL6 gene) of 57.2. For the same molecule, the BCL2 expression increase (BCL2 gene; 100 μM, compared to control) was 208 fold and the fold induction at 100 µM (BCL2 gene) was 208.

In the case of `Fc1ccc2c(c1)Sc1cc3ccccc3nc1N2Cc1cn(Cc2ccc(Cl)cc2)nn1` [MJ8, 9-Fluoro-6-[(1-(4-chlorobenzyl)-1H-1,2,3-triazol-4-yl)methyl]-quino[3,2-b]benzo-[1,4]thiazine], the IC50 (BEAS-2B) is reported as 71.9 µM, the fold induction at 100 µM (IL6 gene) is reported as 9.9 and the fold induction at 100 µM (BCL2 gene) is reported as 10.1.

With `Fc1ccc(Cn2cc(CN3c4ccccc4Sc4cc5ccccc5nc43)nn2)cc1` [MJ2, 6-((1-(4-Fluorobenzyl)-1H-1,2,3-triazol-4-yl)methyl)-quino[3,2-b]benzo[1,4]thiazine] the IC50 (BEAS-2B) was 76.2 µM, the fold induction at 100 µM (IL6 gene) was 1.7 and the fold induction at 100 µM (BCL2 gene) was 6.5.
